Experimental findings from ChEMBL document CHEMBL4725275, “Structural basis for the stabilization of amyloidogenic immunoglobulin light chains by hydantoins” (Bioorg Med Chem Lett, 2020) are described below.

Values after ≈ are worked out from the molar mass of the structure shown. Active and inactive are the calls of the source. No cut-off for these calls is given here.

The species entered for one data set is Homo sapiens. As to the kind of experiment: Kinetic stabilization of AL patient derived recombinant full length IGLV6-57 C214S mutant assessed as induction of dimer formation at 100 uM by sedimentation velocity analytical ultracentrifugation.
A short description of data set [1]: Solubility of the compound. The class given is physicochemical.
Data set [2] has as its target Immunoglobulin lambda variable 6-57 (Homo sapiens) (UniProt P01721). As to the kind of experiment: Binding affinity to AL patient derived full length IGLV6-57 assessed as protection against proteinase K-mediated digestion by measuring fraction remaining at 100 uM measured after 2 hrs by analytical size-exclusion chromatography. (SEC sorts molecules by how far they enter the pores of the column.)

Sequence of Immunoglobulin lambda variable 6-57 (Homo sapiens) (P01721 whole entry): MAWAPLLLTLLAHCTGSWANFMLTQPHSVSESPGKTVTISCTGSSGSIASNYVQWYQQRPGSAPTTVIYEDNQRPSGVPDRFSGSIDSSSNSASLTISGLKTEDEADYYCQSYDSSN

Regarding `CCN(CC)c1ccc2c(C)cc(=O)oc2c1`, in the data set filed under Homo sapiens, the outcome was Active.
The solubility is the dissolved amount per volume that the medium holds. As to `CC1CCCCC12NC(=O)N(CC(=O)Nc1ccc(C(F)(F)F)cc1)C2=O` (stereo not given), in the data set filed under Homo sapiens, the outcome was Active. Besides, the concentration in solution in data set [1] (solubility) was 100 µM (≈ 38.3 µg/mL).
Turning to `CC(C)C[C@@H]1NC(=O)N(CC(=O)Nc2ccc(C(F)(F)F)cc2)C1=O`, the outcome in data set [2] was Active.
Take `CC(C)C[C@H]1NC(=O)N(CC(=O)Nc2ccc(C(F)(F)F)cc2)C1=O`: the outcome in data set [2] was Active.
